Results as given in patent US20250163054A1, “SUBSTITUTED BICYCLIC HETEROARYL COMPOUNDS USEFUL AS INHIBITORS OF TLR9” (Bristol-Myers Squibb Company, priority 2022, published 2025).
pIC50: −log10 of the molar value.

Assays:
Assay type in all cases: cell-based
human TLR7 = biological target: T1, human TLR7 (Homo sapiens, UniProt Q9NYK1); assay: TLR7/8/9 Inhibition Reporter Assays (TLR7); conditions: HEK-Blue cells overexpressing human TLR7, SEAP reporter, stimulated with TLR7 ligand gardiquimod
T1 construct: host or cells: HEK-Blue cells (HEK293-derived reporter line)
T1 sequence (Q9NYK1 27-1049): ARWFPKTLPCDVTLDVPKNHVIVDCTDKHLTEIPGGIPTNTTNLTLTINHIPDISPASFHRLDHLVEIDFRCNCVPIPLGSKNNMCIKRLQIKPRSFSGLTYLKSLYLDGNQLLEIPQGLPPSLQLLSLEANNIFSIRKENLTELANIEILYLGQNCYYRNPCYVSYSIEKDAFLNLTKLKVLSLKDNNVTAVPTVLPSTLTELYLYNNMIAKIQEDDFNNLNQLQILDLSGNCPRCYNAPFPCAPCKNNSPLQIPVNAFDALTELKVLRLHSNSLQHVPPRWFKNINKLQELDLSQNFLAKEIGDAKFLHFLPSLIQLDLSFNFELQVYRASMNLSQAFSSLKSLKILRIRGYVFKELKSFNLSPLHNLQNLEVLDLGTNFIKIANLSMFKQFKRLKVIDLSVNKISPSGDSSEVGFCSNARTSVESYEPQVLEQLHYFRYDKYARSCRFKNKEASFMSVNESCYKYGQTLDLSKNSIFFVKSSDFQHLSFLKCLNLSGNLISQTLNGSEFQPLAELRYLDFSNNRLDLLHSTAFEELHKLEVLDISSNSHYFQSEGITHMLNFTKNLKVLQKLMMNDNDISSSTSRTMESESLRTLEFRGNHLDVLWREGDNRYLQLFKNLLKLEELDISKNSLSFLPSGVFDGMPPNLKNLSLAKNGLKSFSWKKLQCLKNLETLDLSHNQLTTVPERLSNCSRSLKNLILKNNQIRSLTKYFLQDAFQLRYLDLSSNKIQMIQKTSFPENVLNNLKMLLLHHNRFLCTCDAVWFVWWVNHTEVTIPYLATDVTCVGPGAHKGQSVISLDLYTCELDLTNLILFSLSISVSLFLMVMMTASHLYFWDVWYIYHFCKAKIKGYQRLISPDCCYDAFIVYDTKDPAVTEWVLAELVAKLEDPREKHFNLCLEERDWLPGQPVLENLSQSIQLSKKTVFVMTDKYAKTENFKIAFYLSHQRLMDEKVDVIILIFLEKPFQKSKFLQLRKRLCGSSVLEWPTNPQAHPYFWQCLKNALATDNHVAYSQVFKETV
Outline: (§1)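 HEK-Blue cells overexpressing human TLR7, TLR8 or TLR9 with NF-κB/AP-1-driven SEAP reporter, pre-treated 60 min with compound ([…]). Stimulated with […] (TLR7), […] (TLR8) or ODN2006 200 nM (TLR9), then 22 h at 37° C; SEAP measured, % inhibition relative to agonist-plus-DMSO and known-inhibitor wells.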

human TLR8 = biological target: T2, human TLR8 (Homo sapiens, UniProt Q9NR97); assay: TLR7/8/9 Inhibition Reporter Assays (TLR8); conditions: HEK-Blue cells overexpressing human TLR8, SEAP reporter, stimulated with TLR8 ligand R848
T2 construct: host or cells: HEK-Blue cells (HEK293-derived reporter line)
T2 sequence (Q9NR97 27-1041): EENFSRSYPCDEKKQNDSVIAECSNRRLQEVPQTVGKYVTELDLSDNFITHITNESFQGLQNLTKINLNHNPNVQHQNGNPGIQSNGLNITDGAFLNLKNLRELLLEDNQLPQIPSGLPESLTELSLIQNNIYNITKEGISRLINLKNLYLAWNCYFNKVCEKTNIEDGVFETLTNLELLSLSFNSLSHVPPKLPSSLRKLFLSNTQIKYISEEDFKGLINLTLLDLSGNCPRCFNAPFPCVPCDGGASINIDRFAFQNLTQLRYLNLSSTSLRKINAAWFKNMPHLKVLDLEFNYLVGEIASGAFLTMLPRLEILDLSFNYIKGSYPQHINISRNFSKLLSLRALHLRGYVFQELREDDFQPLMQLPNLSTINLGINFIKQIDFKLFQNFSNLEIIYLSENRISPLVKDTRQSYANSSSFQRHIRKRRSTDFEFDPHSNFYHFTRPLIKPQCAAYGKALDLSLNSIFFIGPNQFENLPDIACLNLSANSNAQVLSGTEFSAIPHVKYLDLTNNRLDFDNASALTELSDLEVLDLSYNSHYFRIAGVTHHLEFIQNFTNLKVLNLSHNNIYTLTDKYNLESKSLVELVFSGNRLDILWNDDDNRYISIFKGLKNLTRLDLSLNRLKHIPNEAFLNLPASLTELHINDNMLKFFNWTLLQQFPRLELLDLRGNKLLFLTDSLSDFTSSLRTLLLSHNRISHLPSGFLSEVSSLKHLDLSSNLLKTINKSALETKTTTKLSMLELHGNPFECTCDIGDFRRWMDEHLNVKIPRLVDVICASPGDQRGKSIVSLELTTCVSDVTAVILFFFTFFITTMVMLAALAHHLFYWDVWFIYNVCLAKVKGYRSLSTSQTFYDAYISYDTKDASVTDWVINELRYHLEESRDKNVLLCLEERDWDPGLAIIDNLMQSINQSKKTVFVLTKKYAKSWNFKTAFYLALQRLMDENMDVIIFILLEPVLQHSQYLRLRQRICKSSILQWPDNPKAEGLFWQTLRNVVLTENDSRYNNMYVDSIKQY
Outline: as §1

human TLR9 = biological target: T3, human TLR9 (Homo sapiens, UniProt Q9NR96); assay: TLR7/8/9 Inhibition Reporter Assays (TLR9); conditions: HEK-Blue cells overexpressing human TLR9, SEAP reporter, stimulated with TLR9 ligand ODN2006
T3 construct: host or cells: HEK-Blue cells (HEK293-derived reporter line)
T3 sequence (Q9NR96 26-1032): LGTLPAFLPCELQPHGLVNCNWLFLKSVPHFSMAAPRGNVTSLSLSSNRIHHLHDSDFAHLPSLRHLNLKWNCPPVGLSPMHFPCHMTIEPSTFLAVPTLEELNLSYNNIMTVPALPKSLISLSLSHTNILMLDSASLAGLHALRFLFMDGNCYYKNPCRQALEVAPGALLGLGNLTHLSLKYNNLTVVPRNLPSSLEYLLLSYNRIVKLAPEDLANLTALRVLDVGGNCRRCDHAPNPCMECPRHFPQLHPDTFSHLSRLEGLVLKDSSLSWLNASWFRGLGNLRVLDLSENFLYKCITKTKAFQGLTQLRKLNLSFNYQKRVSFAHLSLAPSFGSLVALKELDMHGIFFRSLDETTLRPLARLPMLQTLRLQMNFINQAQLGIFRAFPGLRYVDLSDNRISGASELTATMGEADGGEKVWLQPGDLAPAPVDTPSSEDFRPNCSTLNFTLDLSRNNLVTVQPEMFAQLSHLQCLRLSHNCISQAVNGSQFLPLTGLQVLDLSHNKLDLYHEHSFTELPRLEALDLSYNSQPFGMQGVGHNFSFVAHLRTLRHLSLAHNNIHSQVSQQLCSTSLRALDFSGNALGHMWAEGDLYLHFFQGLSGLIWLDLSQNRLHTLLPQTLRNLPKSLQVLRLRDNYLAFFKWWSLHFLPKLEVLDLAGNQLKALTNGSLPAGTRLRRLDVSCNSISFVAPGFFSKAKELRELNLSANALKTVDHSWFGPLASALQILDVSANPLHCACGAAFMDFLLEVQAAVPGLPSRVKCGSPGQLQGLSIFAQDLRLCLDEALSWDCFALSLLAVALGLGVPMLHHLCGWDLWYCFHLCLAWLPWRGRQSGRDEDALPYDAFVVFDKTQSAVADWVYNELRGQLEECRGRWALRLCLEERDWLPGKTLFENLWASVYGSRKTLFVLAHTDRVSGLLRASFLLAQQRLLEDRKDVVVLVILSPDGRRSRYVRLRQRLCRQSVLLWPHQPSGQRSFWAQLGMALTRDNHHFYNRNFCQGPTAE
Outline: as §1

| pIC50 (human TLR7) | pIC50 (human TLR8) | pIC50 (human TLR9) | Compound |
| --- | --- | --- | --- |
| 5.24 | 5.54 | 6.36 | CC(C)CN1CC2(C1)CN(c1ccc(-c3cc4c(cn3)nc(-c3ccc(S(C)(=O)=O)cc3)n4C3CC3)cc1)C2 [Example 90, 1-cyclopropyl-6-(4-(6-isobutyl-2,6-diazaspiro[3.3]heptan-2-yl)phenyl)-2-(4-(methylsulfonyl)phenyl)-1H-imidazo[4,5-c]pyridine] |
| 5.51 | < 4.30 | 6.96 | CC(C)N1CCC(N2CCC(c3cc4c(nc(-c5ccc(S(C)(=O)=O)cc5)n4C)c(C(F)(F)F)n3)CC2)CC1 [Example 3, 6-(1′-isopropyl-[1,4′-bipiperidin]-4-yl)-1-methyl-2-(4-(methylsulfonyl)phenyl)-4-(trifluoromethyl)-1H-imidazo[4,5-c]pyridine] |
| 5.11 | < 4.30 | 6.89 | Cc1nc(C2CCN(C3CCN(C(C)C)CC3)CC2)cc2c1nc(-c1ccc(S(C)(=O)=O)cc1)n2C [Example 38, 6-(1′-isopropyl-[1,4′-bipiperidin]-4-yl)-1,4-dimethyl-2-(4-(methylsulfonyl)phenyl)-1H-imidazo[4,5-c]pyridine] |
| 5.40 | < 4.30 | 6.64 | COc1ccc(-c2nc3c(C)nc(-c4ccc(N5CCC6(CC5)CN(C5COC5)C6)cc4)cc3n2C)cc1OC [Example 106, 2-(3,4-dimethoxyphenyl)-1,4-dimethyl-6-(4-(2-(oxetan-3-yl)-2,7-diazaspiro[3.5]nonan-7-yl)phenyl)-1H-imidazo[4,5-c]pyridine] |
| 5.52 | 5.48 | 6.92 | COc1ccc(-c2nc3cnc(-c4ccc(N5C[C@@H]6CN(C(C)C)C[C@@H]6C5)cc4)cc3n2C2CC2)cc1OC [Example 81, 1-cyclopropyl-2-(3,4-dimethoxyphenyl)-6-(4-((3aR,6aS)-5-isopropylhexahydropyrrolo[3,4-c]pyrrol-2(1H)-yl)phenyl)-1H-imidazo[4,5-c]pyridine] |
| 5.82 | 4.74 | 6.85 | COc1ccc(-c2nc3c(C)nc(-c4ccc(N5CCN(CC6CC6)CC5)cc4)cc3n2C)cc1OC [Example 18, 6-(4-(4-(cyclopropylmethyl)piperazin-1-yl)phenyl)-2-(3,4-dimethoxyphenyl)-1,4-dimethyl-1H-imidazo[4,5-c]pyridine] |
| 5.64 | 4.43 | 6.85 | COc1ccc(-c2nc3c(C)nc(-c4ccc(N5CCC6(CC5)CN(C(C)C)C6)cc4)cc3n2C)cc1OC [Example 60, 2-(3,4-dimethoxyphenyl)-6-(4-(2-isopropyl-2,7-diazaspiro[3.5]nonan-7-yl)phenyl)-1,4-dimethyl-1H-imidazo[4,5-c]pyridine] |
| 5.72 | 5.35 | 6.38 | CC(C)N1CC2(CN(c3ccc(-c4cc5c(cn4)nc(-c4ccc(S(C)(=O)=O)cc4)n5C4CC4)cc3)C2)C1 [Example 89, 1-cyclopropyl-6-(4-(6-isopropyl-2,6-diazaspiro[3.3]heptan-2-yl)phenyl)-2-(4-(methylsulfonyl)phenyl)-1H-imidazo[4,5-c]pyridine] |
